Data set [1] concerns the target T1, hERG cardiac potassium channel (Homo sapiens, UniProt Q12809).
T1 construct: host or cells: CHO-K1 cells stably transfected with HERG cDNA
The experiment in a line: in vitro. The class given is cell-based. The following applies: pH 7.4. Here is the method: In Vitro Voltage Clamp Assay of Inhibition of Potassium Ion Current in Whole Cells Expressing the hERG Cardiac Potassium Channel
CHO-K^1 cells stably transfected with HERG cDNA were obtained from Gail Robertson at the University of Wisconsin. Cells were held in cryogenic storage until needed. Cells were expanded and passaged in Dulbecco's Modified Eagles Medium/F12 supplemented with 10% fetal bovine serum and 200 μg/mL geneticin. Cells were seeded onto poly-D-lysine (100 μg/mL) coated glass coverslips, in 35 mm^2 dishes (containing 2 mL medium) at a density that enabled isolated cells to be selected for whole cell voltage-clamp studies. The dishes were maintained in a humidified, 5% CO2 environment at 37° C.
Extracellular solution was prepared at least every 7 days and stored at 4° C. when not in use. […]
The coverslips on which the cells were seeded were transferred to a recording chamber and perfused continuously. […] Peak current amplitudes during the repolarization phase were determined using pClamp software. […]
Peak current amplitudes during the repolarization phase were determined using pCLAMP software. […] The normalized current means and standard errors for each condition were calculated and plotted versus the time course of the experiment. […]

The nature of a further data set: in vivo. Particulars: male, Sprague-Dawley, rat.

T1 sequence (Q12809 whole entry): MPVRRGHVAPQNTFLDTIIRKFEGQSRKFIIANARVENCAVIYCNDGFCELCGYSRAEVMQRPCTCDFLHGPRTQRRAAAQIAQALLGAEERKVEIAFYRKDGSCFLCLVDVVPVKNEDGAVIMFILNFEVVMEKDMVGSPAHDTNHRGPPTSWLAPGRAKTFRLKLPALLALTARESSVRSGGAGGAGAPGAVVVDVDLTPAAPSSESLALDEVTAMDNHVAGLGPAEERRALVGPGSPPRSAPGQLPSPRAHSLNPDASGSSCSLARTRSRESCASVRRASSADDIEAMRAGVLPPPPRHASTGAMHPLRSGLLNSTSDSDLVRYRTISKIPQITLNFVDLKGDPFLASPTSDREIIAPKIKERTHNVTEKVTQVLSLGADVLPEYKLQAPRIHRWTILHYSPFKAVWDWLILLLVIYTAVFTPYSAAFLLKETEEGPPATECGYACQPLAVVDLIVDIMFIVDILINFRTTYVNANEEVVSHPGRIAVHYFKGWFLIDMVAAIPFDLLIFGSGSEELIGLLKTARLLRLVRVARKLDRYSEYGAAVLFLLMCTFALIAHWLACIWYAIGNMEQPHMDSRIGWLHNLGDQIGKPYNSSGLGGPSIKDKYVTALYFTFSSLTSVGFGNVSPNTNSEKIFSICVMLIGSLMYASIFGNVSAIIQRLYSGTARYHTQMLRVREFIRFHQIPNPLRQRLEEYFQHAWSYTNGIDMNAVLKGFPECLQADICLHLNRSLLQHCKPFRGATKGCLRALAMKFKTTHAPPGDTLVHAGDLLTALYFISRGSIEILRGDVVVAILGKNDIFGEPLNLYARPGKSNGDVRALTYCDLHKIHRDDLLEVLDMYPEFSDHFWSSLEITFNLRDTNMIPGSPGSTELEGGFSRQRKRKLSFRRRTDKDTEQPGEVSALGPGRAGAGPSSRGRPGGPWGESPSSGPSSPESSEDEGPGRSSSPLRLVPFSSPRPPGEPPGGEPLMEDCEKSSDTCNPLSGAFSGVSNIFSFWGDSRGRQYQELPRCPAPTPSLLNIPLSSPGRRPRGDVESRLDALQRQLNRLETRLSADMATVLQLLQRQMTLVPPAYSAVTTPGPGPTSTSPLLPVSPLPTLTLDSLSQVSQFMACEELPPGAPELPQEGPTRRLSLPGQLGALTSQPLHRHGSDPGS
Procedure for in vivo: Pharmacokinetic Study in the Rat
Male Sprague-Dawley rats (CD strain, Charles River Laboratories, Wilmington, Mass.) were dosed with test compounds via intravenous administration (IV) at a dose of 2.5 mg/kg or by oral gavage (PO) at a dose of 5 mg/kg. The dosing volume was 1 mL/kg for IV and 2 mL/kg for PO administration. Serial blood samples were collected from animals pre-dose, and at 2 (IV only), 5, 15, and 30 min, and at 1, 2, 4, 8, and 24 hours post-dose.
Standard pharmacokinetic parameters were assessed by non-compartmental analysis (Model 201 for IV and Model 200 for PO) using WinNonlin (Version 4.0.1, Pharsight, Mountain View, Calif.). The maximum in the curve of test compound concentration in blood plasma vs. time is denoted Cmax. The area under the concentration vs. time curve from the time of dosing to the last measurable concentration (AUC(0-t)) was calculated by the linear trapezoidal rule. Oral bioavailability (F(%)), i.e. the dose-normalized ratio of AUC(0-t) for PO administration to AUC(0-t) for IV administration, was calculated as: F(%)=AUCPO/AUCIV×DoseIV/DosePO×100%

Molecule `CC(C)n1c(=O)c(C(=O)NC2CC3CCC(C2)N3CCCS(=O)(=O)N2CCN(C)CC2)cc2ccccc21` [Example 17, 1-isopropyl-2-oxo-1,2-dihydroquinoline-3-carboxylic acid {(1S,3R,5R)-8-[3-(4-methylpiperazine-1-sulfonyl)propyl]-8-azabicyclo[3.2.1]oct-3-yl}amide] showed an inhibition at 5 min, 3 µM in data set [1] of less than 15%. The molecule also had a bioavailability in “in vivo” of roughly 20%. In “in vivo” (po, 5 mg/kg), this molecule yielded an AUC(0-t) of 450 ng·h/mL and a peak concentration (Cmax) of 60 ng/mL.

The values are drawn from US7875629B2, “Quinolinone compounds as 5-HT4 receptor agonists” (Theravance, Inc., priority 2005, dated 2011).
